Test results taken from PubChem BioAssay (NCI).
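How tested: cells in 96-well plates exposed to compound for 48 hours at five concentrations. At the GI50, growth is halved. TGI is the concentration that stops growth completely.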

Columns and labels:
Assay in all cases: NCI tumour cell line growth inhibition, 48 h
[1] = test system: UACC-62 melanoma
[2] = test system: RPMI-8226 leukemia
[3] = test system: EKVX NSCLC
[4] = test system: BT-549 breast
[5] = test system: SF-295 CNS
[6] = test system: NCI/ADR-RES ovarian
[7] = test system: UO-31 renal
[8] = test system: ACHN renal
[9] = test system: MDA-MB-435
[10] = test system: MDA-MB-231 breast
[11] = test system: HOP-62 NSCLC
[12] = test system: OVCAR-5 ovarian
[13] = test system: OVCAR-8 ovarian
[14] = test system: RXF 393 renal
[15] = test system: PC-3 prostate
[16] = test system: SNB-75 CNS
[17] = test system: SK-OV-3 ovarian
[18] = test system: A498 renal
[19] = test system: TK-10 renal
[20] = test system: U251 CNS
[21] = test system: K-562 leukemia
[22] = test system: CAKI-1 renal
[23] = test system: UACC-257 melanoma
[24] = test system: NCI-H460 lung
[25] = test system: MALME-3M melanoma
[26] = test system: HT29 colon
[27] = test system: NCI-H23 lung
[28] = test system: SK-MEL-5 melanoma
[29] = test system: HS 578T breast
[30] = test system: SW-620 colon
[31] = test system: HL-60(TB) leukemia
[32] = test system: SN12C renal
[33] = test system: IGROV1 ovarian
[34] = test system: OVCAR-3 ovarian
[35] = test system: SK-MEL-28 melanoma
[36] = test system: SF-539 CNS
[37] = test system: CCRF-CEM leukemia
[38] = test system: MCF7 breast
[39] = test system: SNB-19 CNS
[40] = test system: LOX IMVI melanoma
[41] = test system: M14 melanoma
[42] = test system: A549 NSCLC
[43] = test system: KM12 colon
[44] = test system: OVCAR-4 ovarian
[45] = test system: SK-MEL-2 melanoma
[46] = test system: HCT-15 colon
[47] = test system: DU-145 prostate
[48] = test system: 786-0 renal
[49] = test system: HCC-2998 colon
[50] = test system: T-47D breast
[51] = test system: NCI-H522 lung
[52] = test system: MOLT-4 leukemia
[53] = test system: HOP-92 NSCLC
[54] = test system: COLO 205 colon

Q: `O=C1/C(=C/c2ccccc2)CN(C(=O)CCN2CCC(=NO)CC2)C/C1=C\c1ccccc1` was tested. Which GI50 [1] did it give?
A: 1.7 µM

Q: What about the TGI [1] of the same compound?
A: 3.77 µM

Q: What about the GI50 [2] of the same compound?
A: 0.32 µM

Q: And the TGI [2]?
A: 1.23 µM

Q: And the GI50 [3]?
A: 2.81 µM

Q: What about the TGI [3] of the same compound?
A: 9.01 µM

Q: And the GI50 [4]?
A: 1.63 µM

Q: What about the TGI [4] of the same compound?
A: 3.27 µM

Q: And the GI50 [5]?
A: 2.08 µM

Q: What about the TGI [5] of the same compound?
A: 4.64 µM

Q: And the GI50 [6]?
A: 2.49 µM

Q: And the TGI [6]?
A: 8.68 µM

Q: And the GI50 [7]?
A: 1.4 µM

Q: What about the TGI [7] of the same compound?
A: 2.71 µM

Q: And the GI50 [8]?
A: 1.85 µM

Q: What about the TGI [8] of the same compound?
A: 3.91 µM

Q: And the GI50 [9]?
A: 1.42 µM

Q: What about the TGI [9] of the same compound?
A: 3.19 µM

Q: And the GI50 [10]?
A: 1.83 µM

Q: What about the TGI [10] of the same compound?
A: 3.47 µM

Q: And the GI50 [11]?
A: 1.79 µM

Q: And the TGI [11]?
A: 3.64 µM

Q: And the GI50 [12]?
A: 1.8 µM

Q: And the TGI [12]?
A: 3.58 µM

Q: What about the GI50 [13] of the same compound?
A: 1.31 µM

Q: And the TGI [13]?
A: 3.29 µM

Q: What about the GI50 [14] of the same compound?
A: 1.56 µM

Q: What about the TGI [14] of the same compound?
A: 2.96 µM

Q: What about the GI50 [15] of the same compound?
A: 1.52 µM

Q: And the TGI [15]?
A: 3.87 µM

Q: What about the GI50 [16] of the same compound?
A: 2.85 µM

Q: And the TGI [16]?
A: 11.5 µM

Q: What about the GI50 [17] of the same compound?
A: 2.51 µM

Q: What about the TGI [17] of the same compound?
A: 7.09 µM

Q: What about the GI50 [18] of the same compound?
A: 1.67 µM

Q: What about the TGI [18] of the same compound?
A: 3.9 µM

Q: And the GI50 [19]?
A: 2.38 µM

Q: And the TGI [19]?
A: 7.79 µM

Q: And the GI50 [20]?
A: 1.51 µM

Q: What about the TGI [20] of the same compound?
A: 3.49 µM

Q: And the GI50 [21]?
A: 0.396 µM

Q: What about the TGI [21] of the same compound?
A: > 100 µM

Q: And the GI50 [22]?
A: 1.61 µM

Q: What about the TGI [22] of the same compound?
A: 3.01 µM

Q: What about the GI50 [23] of the same compound?
A: 1.92 µM

Q: What about the TGI [23] of the same compound?
A: 4.7 µM

Q: What about the GI50 [24] of the same compound?
A: 2.43 µM

Q: What about the TGI [24] of the same compound?
A: 5.83 µM

Q: And the GI50 [25]?
A: 2.01 µM

Q: And the TGI [25]?
A: 5.18 µM

Q: And the GI50 [26]?
A: 1.21 µM

Q: What about the TGI [26] of the same compound?
A: 3.61 µM

Q: And the GI50 [27]?
A: 1.89 µM

Q: What about the TGI [27] of the same compound?
A: 4.28 µM

Q: What about the GI50 [28] of the same compound?
A: 1.64 µM

Q: What about the TGI [28] of the same compound?
A: 2.99 µM

Q: And the GI50 [29]?
A: 3.09 µM

Q: And the TGI [29]?
A: 14.6 µM

Q: And the GI50 [30]?
A: 0.322 µM

Q: And the TGI [30]?
A: 1.3 µM

Q: And the GI50 [31]?
A: 2.59 µM

Q: And the TGI [31]?
A: 8.33 µM

Q: And the GI50 [32]?
A: 1.86 µM

Q: And the TGI [32]?
A: 4.03 µM

Q: And the GI50 [33]?
A: 1.69 µM

Q: And the TGI [33]?
A: 3.35 µM

Q: What about the GI50 [34] of the same compound?
A: 1.66 µM

Q: What about the TGI [34] of the same compound?
A: 3.15 µM

Q: What about the GI50 [35] of the same compound?
A: 2.19 µM

Q: And the TGI [35]?
A: 5.29 µM

Q: And the GI50 [36]?
A: 1.91 µM

Q: And the TGI [36]?
A: 3.85 µM

Q: What about the GI50 [37] of the same compound?
A: 0.758 µM

Q: And the TGI [37]?
A: 9.33 µM

Q: And the GI50 [38]?
A: 0.355 µM

Q: And the TGI [38]?
A: 1.98 µM

Q: And the GI50 [39]?
A: 1.83 µM

Q: And the TGI [39]?
A: 4.06 µM

Q: What about the GI50 [40] of the same compound?
A: 0.366 µM

Q: And the TGI [40]?
A: 1.41 µM

Q: And the GI50 [41]?
A: 1.5 µM

Q: And the TGI [41]?
A: 3.37 µM

Q: What about the GI50 [42] of the same compound?
A: 3.05 µM

Q: And the GI50 [43]?
A: 0.663 µM

Q: And the TGI [43]?
A: 2.23 µM

Q: What about the GI50 [44] of the same compound?
A: 2.15 µM

Q: And the TGI [44]?
A: 4.69 µM

Q: What about the GI50 [45] of the same compound?
A: 4.56 µM

Q: And the TGI [45]?
A: 16.2 µM

Q: And the GI50 [46]?
A: 1.39 µM

Q: And the TGI [46]?
A: 3.27 µM

Q: What about the GI50 [47] of the same compound?
A: 1.8 µM

Q: And the TGI [47]?
A: 3.27 µM

Q: What about the GI50 [48] of the same compound?
A: 1.98 µM

Q: What about the TGI [48] of the same compound?
A: 4.51 µM

Q: What about the GI50 [49] of the same compound?
A: 1.73 µM

Q: What about the TGI [49] of the same compound?
A: 3.32 µM

Q: And the GI50 [50]?
A: 2.68 µM

Q: What about the TGI [50] of the same compound?
A: 7.91 µM

Q: And the GI50 [51]?
A: 1.6 µM

Q: And the TGI [51]?
A: 3.36 µM

Q: What about the GI50 [52] of the same compound?
A: 0.686 µM

Q: What about the TGI [52] of the same compound?
A: 11.3 µM

Q: What about the GI50 [53] of the same compound?
A: 2.03 µM

Q: And the TGI [53]?
A: 6.4 µM

Q: What about the GI50 [54] of the same compound?
A: 1.68 µM

Q: And the TGI [54]?
A: 3.29 µM
